Key:
[1] = tested on: GD3-KLH and MUC1-KLH conjugates; settings: mouse; cited from earlier work
monoclonal antibody F12 = test: Binding to monoclonal antibody F12 (ELISA, immune thin layer chromatography, inhibition)
Excerpt: In yet another example, a fucosyl GM1-KLH glycoconjugate is generated according to the method of the present invention, as discussed in Example 1. […] Clearly, the synthetic fucosyl GM1 pentenyl glycoside provides the antigenic epitope with which F12 reacts on SCLC cells.

Row | binding to monoclonal antibody F12 (monoclonal antibody F12; ELISA and immune thin layer chromatography assays, prior to conjugation) | inhibition of reactivity of natural fucosyl GM1 with F12 (monoclonal antibody F12; preincubation of F12) | Substance | augmentation of antibody responses compared to the conjugates alone [1]
1 |  |  | QS-21 | 1000-100,000 fold
2 | shown to bind | completely inhibits | fucosyl GM1 pentenyl glycoside [n-pentenyl fucosyl GM1] | 

— patent US7824687B2, “Clustered multi-antigenic carbohydrate constructs, methods for their preparation, and uses thereof” (Sloan-Kettering Institute For Cancer Research, priority 1999, dated 2010)
